For 14 molecules, hypotensive activities and IC50 results are on record in patent publication US5424309A, “N-substituted acylamino acid compounds, process for their production and their use” (Banyu Pharmaceutical Co., Ltd., priority 1988, dated 1995).

The subject of assay [1] is marmosets. The assay is described as follows: Hypotensive activities in monkeys (furosemide-treated marmosets, oral administration). Particulars: 30 mg/kg orally; three marmosets; furosemide 30 mg/kg pretreatment (high renin active state); FIG. 1. Type of assay: in vivo. The method, then:
The hypotensive activities were measured in accordance with a method disclosed in J. Cardiovascular Pharmacology, Vol. 7, (Suppl. 4) S58-61 (1985). Namely, 30 mg/kg of furosemide (diuretic) was intracutaneously injected to three marmosets i.e. small size monkeys to produce a high renin active state. To these marmosets, 30 mg/kg of the compound of Example 1 was orally administered, whereupon the hypotensive activities were measured.

The target in assay [2] is T1, human plasma renin (Homo sapiens, UniProt P00797).
T1 construct: from tissue; host or cells: human plasma
T1 sequence (P00797 67-406): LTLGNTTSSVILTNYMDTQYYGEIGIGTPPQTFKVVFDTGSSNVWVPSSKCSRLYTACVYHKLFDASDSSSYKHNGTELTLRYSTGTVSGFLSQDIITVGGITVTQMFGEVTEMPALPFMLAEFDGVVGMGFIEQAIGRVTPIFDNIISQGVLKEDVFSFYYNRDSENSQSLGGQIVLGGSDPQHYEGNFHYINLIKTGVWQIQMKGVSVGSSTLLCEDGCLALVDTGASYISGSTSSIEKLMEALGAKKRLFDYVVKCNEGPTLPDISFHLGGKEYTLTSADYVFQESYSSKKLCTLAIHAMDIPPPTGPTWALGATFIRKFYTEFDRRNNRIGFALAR
Put plainly: Renin inhibiting activities (human plasma, angiotensin I by radio immunoassay). It counts as biochemical. Particulars: pH7.4, 37° C., one hour, read-out: IC50 (50 % inhibition concentrations), renin inhibiting activity. The method, then: To 156 μl of a 0.2M sodium phosphate buffer solution (pH7.4), 40 μl of a solution mixture of 34 mM 8-hydroxyquinoline and 100 mM disodium ethylenediamine tetraacetate, 4 μl of dimethyl sulfoxide or a dimethyl sulfoxide solution of test compound and 200 μl of human plasma were added and reacted at 37° C. for one hour. Then, pepstatin was added thereto to terminate the reaction, and the amount of the resulting angiotension I was measured by radio immunoassay whereby the inhibiting activity was determined.

pIC50: −log10 of the molar value.

On to `CCCC[C@H](NC(=O)[C@H](Cc1cccc2ccccc12)CS(=O)(=O)CC(COC(C)=O)OC(C)=O)C(=O)N[C@@H](CC1CCCCC1)[C@@H](O)[C@@H](O)CN1CCOCC1` (mixture of isomers) [Example 1, (2S, 3R, 4S)-4-{L-N-[(2S)-3-[(2RS)-2,3-diacetoxypropyl]sulfonyl-2-(1-naphthylmethyl)propionyl]norleucyl}amino-5-cyclohexyl-1-morpholino-2,3-pentanediol], for which the hypotensive activities result in assay [1] is on record as “exhibits hypotensive activities by the oral administration”. Moreover, the pIC50 in assay [2] was 8.60.
In the case of `CCCC[C@H](NC(=O)[C@H](Cc1cccc2ccccc12)CS(=O)(=O)CCOC(C)=O)C(=O)N[C@@H](CC1CCCCC1)[C@@H](O)[C@@H](O)CN1CCOCC1` [Example 3, (2S,3R,4S)-4{L-N-[(2S)-3-(2-acetoxyethyl)sulfonyl-2-(1-naphthylmethyl)propionyl]norleucyl)amino-5-cyclohexyl-1-morpholino-2,3-pentanediol], in assay [2], the pIC50 is 8.51.
Still for that read-out and setting: to `CCCC[C@H](NC(=O)[C@H](Cc1cccc2ccccc12)C[S+]([O-])CC(COC(C)=O)OC(C)=O)C(=O)N[C@@H](CC1CCCCC1)[C@@H](O)[C@@H](O)CN1CCOCC1` (mixture of isomers) [Example 6 (having a low Rf value), (2S,3R,4S)-4-{L-N-[(2S)-3-[(2RS)-2,3-diacetoxypropyl]sulfinyl-2-(1-naphthylmethyl)propionyl]norleucyl}amino-5-cyclohexyl-1-morpholino-2,3-pentanediol] belongs 8.39; to `CCCC[C@H](NC(=O)[C@H](Cc1cccc2ccccc12)CS(=O)(=O)CC(O)COC(C)=O)C(=O)N[C@@H](CC1CCCCC1)[C@@H](O)[C@@H](O)CN1CCOCC1` (stereo partly drawn) [Example 11], 8.20; to `CCCC[C@H](NC(=O)[C@H](Cc1cccc2ccccc12)CS(=O)(=O)CCOC(=O)C(C)(C)C)C(=O)N[C@@H](CC1CCCCC1)[C@@H](O)[C@@H](O)CN1CCOCC1` [Example 4], 8.11.
The same measure, in the same setting: the figure for `CCCC[C@H](NC(=O)[C@@H](CSC1CCC(OC(C)=O)C1)Cc1cccc2ccccc12)C(=O)N[C@@H](CC1CCCCC1)[C@@H](O)[C@@H](O)CN1CCOCC1` (stereo partly drawn) [Example 34, (2S,3R,4S)-4-{L-N-[(2S)-3-(3-acetoxycyclopentyl)thio-2-(1-naphthylmethyl)propionyl]norleucyl}amino-5-cyclohexyl-1-morpholino-2,3-pentanediol] is 8.25; for `CCCC[C@H](NC(=O)[C@H](Cc1cccc2ccccc12)CS(=O)(=O)CC(COC)OC(C)=O)C(=O)N[C@@H](CC1CCCCC1)[C@@H](O)[C@@H](O)CN1CCOCC1` (mixture of isomers) [Example 28, (2S,3R,4S)-4-{L-N-[(2S)-3-[(2RS)-2-acetoxy-3-methoxypropyl]sulfonyl-2-(1-naphthylmethyl)propionyl]norleucyl}amino-5-cyclohexyl-1-morpholino-2,3-pentanediol] it is 8.72; for `CCCC[C@H](NC(=O)[C@H](Cc1cccc2ccccc12)CS(=O)(=O)C1CCC(OC(C)=O)C1)C(=O)N[C@@H](CC1CCCCC1)[C@@H](O)[C@@H](O)CN1CCOCC1` (single isomer, unassigned) [Example 33 (having a high Rf value)] it is 8.66.
Same read-out and setting: the figure for `CCCC[C@H](NC(=O)[C@@H](CSCC(COC(C)=O)OC(C)=O)Cc1cccc2ccccc12)C(=O)N[C@@H](CC1CCCCC1)[C@@H](O)[C@@H](O)CN1CCOCC1` (stereo partly drawn) [Example 7, (2S,3R,4S)-4-{L-N-[(2S)-3-[(2RS)-2,3,-diacetoxypropyl]thio-2-(1-naphthylmethyl)propionyl]norleucyl}amino-5-cyclohexyl-1-morpholino-2,3-pentanediol] is 8.55.
On to `CCCC[C@H](NC(=O)[C@H](Cc1cccc2ccccc12)CS(=O)(=O)CCOC(=O)OCC)C(=O)N[C@@H](CC1CCCCC1)[C@@H](O)[C@@H](O)CN1CCOCC1` [Example 5, (2S,3R,4S)-4-{L-N-[(2S)-3-(2-ethoxycarbonyloxyethyl)sulfonyl-2-(1-naphthylmethyl)propionyl]norleucyl}amino-5-cyclohexyl-1-morpholino-2,3-pentanediol], for which the pIC50 in assay [2] was 8.30.
In the case of `CCCC[C@H](NC(=O)[C@H](Cc1cccc2ccccc12)CS(=O)(=O)C1CCC(OC(C)=O)C1OC(C)=O)C(=O)N[C@@H](CC1CCCCC1)[C@@H](O)[C@@H](O)CN1CCOCC1` (stereo partly drawn) [Example 36, (2S,3R,4S),4-{L-N-[(2S)-3-(2,3-diacetoxycyclopentyl)sulfonyl-2-(1-naphthylmethyl)propionyl]norleucyl}amino-5-cyclohexyl-1-morpholino-2,3-pentanediol], the pIC50 in assay [2] was 8.72.
Same read-out and setting: to `CCCC[C@H](NC(=O)[C@H](Cc1ccccc1)CS(=O)(=O)CC(COC(C)=O)OC(C)=O)C(=O)N[C@@H](CC1CCCCC1)[C@@H](O)[C@@H](O)CN1CCOCC1` (mixture of isomers) [Example 15, (2S,3R,4S)-4-{L-N-[(2S)-3-[(2RS)-2,3-diacetoxypropyl]sulfonyl-2-benzylpropionyl]norleucyl}amino-5-cyclohexyl-1-morpholino-2,3-pentanediol] belongs 8.14; to `CCCC[C@H](NC(=O)[C@@H](CSCC(COC(C)=O)OC(C)=O)Cc1ccccc1)C(=O)N[C@@H](CC1CCCCC1)[C@@H](O)[C@@H](O)CN1CCOCC1` (mixture of isomers) [Example 16, (2S,3R,4S)-4-{L-N-[(2S)-3-[(2RS)-2,3-diacetoxypropyl]thio-2-benzylpropionyl]norleucyl}amino-5-cyclohexyl-1-morpholino-2,3-pentanediol], 8.22; to `CCCC[C@H](NC(=O)[C@H](Cc1cccc2ccccc12)CS(=O)(=O)CC(COC(C)=O)=NO)C(=O)N[C@@H](CC1CCCCC1)[C@@H](O)[C@@H](O)CN1CCOCC1` [Example 42, (2S,3R,4S)-4-{L-N-[(2S)-3-(3-acetoxy-2-hydroxyiminopropyl)sulfonyl-2-(1-naphthylmethyl)propionyl]norleucyl}amino-5-cyclohexyl-1-morpholino-2,3-pentanediol], 8.21.
